Data on seven compounds can be found in patent publication US10670605B2, “Cysteine reactive probes and uses thereof” (The Scripps Research Institute, priority 2015, dated 2020).

This experiment addresses T1, UBA7 C599 (P41226) (Homo sapiens, UniProt P41226).
T1 sequence (P41226 1-1012): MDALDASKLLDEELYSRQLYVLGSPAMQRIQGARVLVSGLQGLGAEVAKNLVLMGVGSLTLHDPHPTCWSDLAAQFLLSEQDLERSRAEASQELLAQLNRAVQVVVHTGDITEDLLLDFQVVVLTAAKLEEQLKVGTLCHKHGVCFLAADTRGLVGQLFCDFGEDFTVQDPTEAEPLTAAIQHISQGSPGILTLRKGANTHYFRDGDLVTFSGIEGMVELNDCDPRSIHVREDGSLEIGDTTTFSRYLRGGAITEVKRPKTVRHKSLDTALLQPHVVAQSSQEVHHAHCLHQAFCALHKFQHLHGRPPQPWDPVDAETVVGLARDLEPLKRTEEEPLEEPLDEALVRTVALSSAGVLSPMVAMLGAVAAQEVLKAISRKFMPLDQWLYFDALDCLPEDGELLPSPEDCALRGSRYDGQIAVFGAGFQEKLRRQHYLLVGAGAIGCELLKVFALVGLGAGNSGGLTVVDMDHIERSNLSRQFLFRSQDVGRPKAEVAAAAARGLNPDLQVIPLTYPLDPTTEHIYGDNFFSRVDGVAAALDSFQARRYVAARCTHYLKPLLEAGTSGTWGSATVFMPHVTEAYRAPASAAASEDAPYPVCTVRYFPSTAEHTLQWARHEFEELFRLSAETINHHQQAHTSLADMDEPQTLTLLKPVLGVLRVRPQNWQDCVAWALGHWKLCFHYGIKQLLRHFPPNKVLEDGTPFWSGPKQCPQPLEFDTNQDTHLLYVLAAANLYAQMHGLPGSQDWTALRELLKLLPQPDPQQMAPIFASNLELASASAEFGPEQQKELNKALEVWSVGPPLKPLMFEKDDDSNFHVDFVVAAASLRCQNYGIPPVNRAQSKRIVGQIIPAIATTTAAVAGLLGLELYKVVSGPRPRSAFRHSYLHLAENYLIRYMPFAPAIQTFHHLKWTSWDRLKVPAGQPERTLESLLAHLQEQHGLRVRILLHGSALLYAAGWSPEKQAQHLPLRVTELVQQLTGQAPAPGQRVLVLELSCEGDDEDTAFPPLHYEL
The experiment in a line: Competitive isoTOP-ABPP, cell lysates. Type of experiment: binding.

With `COc1ccc(C2CC(c3cccs3)=NN2C(=O)CCl)cc1` (stereo not drawn) [compound 4], the “R value (DMSO/fragment)” value (250 μM, in vitro, Ramos) was 20.0.
On to `Cn1cc(S(=O)(=O)N2CCOCC2)cc1C(=O)NC(=O)CCl` [compound 11], for which, where the note is “500 μM, invitro, ramos”, the “isoTOP-ABPP ratio, P41226_C599” value is on record as 1.9.
As for `O=C(CCl)N1CCC(C(O)(c2ccccc2)c2ccccc2)CC1` [compound 20], the “isoTOP-ABPP ratio (reactivity profile), P41226_C599” value is recorded as 12.2 (500 μm in-vitro ramos) and 1.1 (500 μm in-vitro ramos_231).
With `O=C(CCl)NC12CC3CC(CC(C3)C1)C2` [compound 21], where the note is “500 μm in-vitro ramos”, the “isoTOP-ABPP ratio (reactivity profile), P41226_C599” value is given as 2.5.
`N#C/C(=C\c1cc(C(F)(F)F)cc(C(F)(F)F)c1)C(N)=O` [compound 23]: for the setting “500 μm in-vitro ramos”, the “isoTOP-ABPP ratio (reactivity profile), P41226_C599” value was found to be 3.2.
With `CC(C)CCOCCNC(=O)CCl` [compound 27], the “isoTOP-ABPP ratio (reactivity profile), P41226_C599” value is given as 1.3 (500 μm in-vitro ramos) and 0.7 (500 μm in-vitro ramos_231).
Turning to `O=C(CCl)Nc1ccccc1C1CCCCCC1` [compound 35], under “500 μm, in-vitro_ramos”, the “isoTOP-ABPP reactivity ratio, P41226_C599” value amounted to 1.2.
